Laboratory results published in patent US12384797B2, “Thioeno[3,2-b] pyridin-7-amine compounds for treating familial dysautonomia” (PTC THERAPEUTICS, INC., priority 2019, dated 2025).

test system: Elongator complex protein 1 (ELP1, also referred to as IKBKAP); assay: IKBKAP-HTRF assay (IKBKAP protein in lysates of FD patient-derived fibroblasts); type: cell-based, human; settings: 48 hours incubation, 7-point concentration curve
Summary of the method: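 FD patient-derived fibroblasts (10,000/well) were treated 48 h at 37 °C with a 7-point, 3.16-fold compound series in triplicate, then lysed. IKBKAP was read by sandwich HTRF (donor/acceptor anti-IKAP antibodies, overnight at 4 °C, 665/620 nm). MFI is ΔF over vehicle ΔF; EC2x is the concentration giving twice the vehicle IKBKAP level.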

Row | SMILES | EC2x for IKBKAP protein expression (concentration producing two times the amount of IKBKAP protein vs DMSO vehicle control) | MFI (maximum fold increase in IKBKAP protein abundance relative to the vehicle control)
1 | N[C@@H](CCF)Cc1sc2c(NCc3cccs3)cc(Cl)nc2c1Br [Compound 74, 2-[(2S)-2-amino-4-fluorobutyl]-3-bromo-5-chloro-N-[(thiophen-2-yl)methyl]thieno[3,2-b]pyridin-7-amine] | ***** (≤0.005 μM is indicated by five stars (*****)) | ***** (>4.9 is indicated by five stars (*****))
2 | N[C@@H](CF)Cc1sc2c(NCc3cccs3)cc(Cl)nc2c1Br [Compound 76, 2-[(2R)-2-amino-3-fluoropropyl]-3-bromo-5-chloro-N-[(thiophen-2-yl)methyl]thieno[3,2-b]pyridin-7-amine] | ***** (≤0.005 μM is indicated by five stars (*****)) | ***** (>4.9 is indicated by five stars (*****))
3 | CC[C@H](N)Cc1sc2c(NCc3nccs3)cc(Cl)nc2c1Br [Compound 78, 2-[(2S)-2-aminobutyl]-3-bromo-5-chloro-N-[(1,3-thiazol-2-yl)methyl]thieno[3,2-b]pyridin-7-amine] | ***** (≤0.005 μM is indicated by five stars (*****)) | ***** (>4.9 is indicated by five stars (*****))
4 | CC(C)C[C@H](N)Cc1sc2c(NCc3nccs3)cc(Cl)nc2c1Cl [Compound 79, 2-[(2S)-2-amino-4-methylpentyl]-3,5-dichloro-N-[(1,3-thiazol-2-yl)methyl]thieno[3,2-b]pyridin-7-amine] | ***** (≤0.005 μM is indicated by five stars (*****)) | ***** (>4.9 is indicated by five stars (*****))
5 | Cc1c(C[C@@H](N)CF)sc2c(NCc3ccco3)cc(Cl)nc12 [Compound 81, 2-[(2R)-2-amino-3-fluoropropyl]-5-chloro-N-[(furan-2-yl)methyl]-3-methylthieno[3,2-b]pyridin-7-amine] | ***** (≤0.005 μM is indicated by five stars (*****)) | ***** (>4.9 is indicated by five stars (*****))
6 | CC[C@H](N)Cc1sc2c(NCc3nccs3)cc(Cl)nc2c1Cl [Compound 82, 2-[(2S)-2-aminobutyl]-3,5-dichloro-N-[(1,3-thiazol-2-yl)methyl]thieno[3,2-b]pyridin-7-amine] | ***** (≤0.005 μM is indicated by five stars (*****)) | ***** (>4.9 is indicated by five stars (*****))
7 | CC[C@H](N)Cc1sc2c(NCc3cccs3)cc(Cl)nc2c1Cl [Compound 83, 2-[(2S)-2-aminobutyl]-3,5-dichloro-N-[(thiophen-2-yl)methyl]thieno[3,2-b]pyridin-7-amine] | ***** (≤0.005 μM is indicated by five stars (*****)) | ***** (>4.9 is indicated by five stars (*****))
8 | N[C@@H](CF)Cc1sc2c(NCc3cccs3)cc(Cl)nc2c1Cl [Compound 84, 2-[(2R)-2-amino-3-fluoropropyl]-3,5-dichloro-N-[(thiophen-2-yl)methyl]thieno[3,2-b]pyridin-7-amine] | ***** (≤0.005 μM is indicated by five stars (*****)) | ***** (>4.9 is indicated by five stars (*****))
9 | CC[C@H](N)Cc1sc2c(NCc3nccs3)cc(Cl)nc2c1C [Compound 85, 2-[(2S)-2-aminobutyl]-5-chloro-3-methyl-N-[(1,3-thiazol-2-yl)methyl]thieno[3,2-b]pyridin-7-amine] | ***** (≤0.005 μM is indicated by five stars (*****)) | ***** (>4.9 is indicated by five stars (*****))
10 | N[C@@H](CF)Cc1sc2c(NCc3nccs3)cc(Cl)nc2c1C1CC1 [Compound 87, 2-[(2R)-2-amino-3-fluoropropyl]-5-chloro-3-cyclopropyl-N-[(1,3-thiazol-2-yl)methyl]thieno[3,2-b]pyridin-7-amine] | *** (between >0.02 μM and ≤0.5 μM is indicated by three stars (***)) | *** (between >2.9 and ≤3.9 is indicated by three stars (***))
11 | N[C@@H](CCF)Cc1sc2c(NCc3nccs3)cc(Cl)nc2c1Br [Compound 88, 2-[(2S)-2-amino-4-fluorobutyl]-3-bromo-5-chloro-N-[(1,3-thiazol-2-yl)methyl]thieno[3,2-b]pyridin-7-amine] | ***** (≤0.005 μM is indicated by five stars (*****)) | ***** (>4.9 is indicated by five stars (*****))
12 | N[C@@H](CCO)Cc1sc2c(NCc3nccs3)cc(Cl)nc2c1Br [Compound 89, (3S)-3-amino-4-(3-bromo-5-chloro-7-{[(1,3-thiazol-2-yl)methyl]amino}thieno[3,2-b]pyridin-2-yl)butan-1-ol] | ***** (≤0.005 μM is indicated by five stars (*****)) | ***** (>4.9 is indicated by five stars (*****))
13 | N[C@@H](CF)Cc1sc2c(NCc3nccs3)cc(Cl)nc2c1Cl [Compound 90, 2-[(2R)-2-amino-3-fluoropropyl]-3,5-dichloro-N-[(1,3-thiazol-2-yl)methyl]thieno[3,2-b]pyridin-7-amine] | ***** (≤0.005 μM is indicated by five stars (*****)) | ***** (>4.9 is indicated by five stars (*****))
14 | Cc1c(C[C@@H](N)CF)sc2c(NCc3cccs3)cc(Cl)nc12 [Compound 91, 2-[(2R)-2-amino-3-fluoropropyl]-5-chloro-3-methyl-N-[(thiophen-2-yl)methyl]thieno[3,2-b]pyridin-7-amine] | ***** (≤0.005 μM is indicated by five stars (*****)) | ***** (>4.9 is indicated by five stars (*****))
15 | Cc1c(C[C@@H](N)CCF)sc2c(NCc3cccs3)cc(Cl)nc12 [Compound 92, 2-[(2S)-2-amino-4-fluorobutyl]-5-chloro-3-methyl-N-[(thiophen-2-yl)methyl]thieno[3,2-b]pyridin-7-amine] | ***** (≤0.005 μM is indicated by five stars (*****)) | ***** (>4.9 is indicated by five stars (*****))
16 | N[C@@H](CCF)Cc1sc2c(NCc3ccco3)cc(Cl)nc2c1Cl [Compound 93, 2-[(2S)-2-amino-4-fluorobutyl]-3,5-dichloro-N-[(furan-2-yl)methyl]thieno[3,2-b]pyridin-7-amine] | ***** (≤0.005 μM is indicated by five stars (*****)) | ***** (>4.9 is indicated by five stars (*****))
17 | N[C@@H](CF)Cc1sc2c(NCc3ccco3)cc(Cl)nc2c1Cl [Compound 94, 2-[(2R)-2-amino-3-fluoropropyl]-3,5-dichloro-N-[(furan-2-yl)methyl]thieno[3,2-b]pyridin-7-amine] | ***** (≤0.005 μM is indicated by five stars (*****)) | **** (between >3.9 and ≤4.9 is indicated by four stars (****))
18 | Cc1c(C[C@@H](N)CCF)sc2c(NCc3ccco3)cc(Cl)nc12 [Compound 95, 2-[(2S)-2-amino-4-fluorobutyl]-5-chloro-N-[(furan-2-yl)methyl]-3-methylthieno[3,2-b]pyridin-7-amine] | ***** (≤0.005 μM is indicated by five stars (*****)) | ***** (>4.9 is indicated by five stars (*****))
19 | C[C@H](N)Cc1sc2c(NCc3nccs3)cc(Cl)nc2c1C1CC1 [Compound 96, 2-[(2S)-2-aminopropyl]-5-chloro-3-cyclopropyl-N-[(1,3-thiazol-2-yl)methyl]thieno[3,2-b]pyridin-7-amine] | **** (between >0.005 μM and ≤0.02 μM is indicated by four stars (****)) | ***** (>4.9 is indicated by five stars (*****))
20 | N[C@@H](CCF)Cc1sc2c(NCc3ccco3)cc(Cl)nc2c1Br [Compound 97, 2-[(2S)-2-amino-4-fluorobutyl]-3-bromo-5-chloro-N-[(furan-2-yl)methyl]thieno[3,2-b]pyridin-7-amine] | ***** (≤0.005 μM is indicated by five stars (*****)) | ***** (>4.9 is indicated by five stars (*****))
21 | N[C@@H](CCF)Cc1sc2c(NCc3cccs3)cc(Cl)nc2c1Cl [Compound 98, 2-[(2S)-2-amino-4-fluorobutyl]-3,5-dichloro-N-[(thiophen-2-yl)methyl]thieno[3,2-b]pyridin-7-amine] | ***** (≤0.005 μM is indicated by five stars (*****)) | ***** (>4.9 is indicated by five stars (*****))
22 | Cc1c(C[C@@H](N)CCF)sc2c(NCc3nccs3)cc(Cl)nc12 [Compound 99, 2-[(2S)-2-amino-4-fluorobutyl]-5-chloro-3-methyl-N-[(1,3-thiazol-2-yl)methyl]thieno[3,2-b]pyridin-7-amine] | ***** (≤0.005 μM is indicated by five stars (*****)) | ***** (>4.9 is indicated by five stars (*****))
